From patent US11612661B2 (priority 2019, dated 2023)
Several values for one entry are separate records, joined by “and”; a condition that tells them apart may be missing. Identical values can stand only once. Bridge positions count the residues as written; N and C are the ends. Square brackets hold non-standard residues; d marks the D form. Triazole bridges read from a SMILES are 1,4-linked. Peptide text beside a SMILES is read from it. Orn(N3) = [N-]=[N+]=NCCC[C@H](N)C(=O)O; Cit = NC(=O)NCCC[C@H](N)C(=O)O; Pra = C#CC[C@H](N)C(=O)O

Tests used:
[1] = system: α9α10 nAChR; settings: cited from earlier work
[2] = system: oxaliplatin-induced peripheral neuropathy; set-up: species or system Sprague Dawley rats; settings: in vivo
[3] = system: 88 receptors, transporters, enzymes and kinases
[4] = system: spared nerve injury; set-up: species or system rats; settings: rat, in vivo, 0.5 mg/kg
[5] = target: rat α9α10 nAChR (Rattus norvegicus, UniProt P43144+Q9JLB5); test: cell-based; assay type: cell-based; settings: for IC50: α9α10 nAChR IC50 (nM) Rat
[6] = target: α7 nAChR (Homo sapiens, UniProt P36544); settings: read-out: Partial inhibition of the α7 nAChR
[7] = target: human α9α10 nAChR (Homo sapiens, UniProt Q9GZZ6+Q9UGM1); test: cell-based; assay type: cell-based
[8] = 24 h
[9] = in vivo; settings: male, Sprague Dawley, rat, sc, 1 mg/kg
[10] = rat, in vivo, 1 mg/kg, 1 h

human α9α10 nAChR, sequence (Q9UGM1 26-479 limits assumed): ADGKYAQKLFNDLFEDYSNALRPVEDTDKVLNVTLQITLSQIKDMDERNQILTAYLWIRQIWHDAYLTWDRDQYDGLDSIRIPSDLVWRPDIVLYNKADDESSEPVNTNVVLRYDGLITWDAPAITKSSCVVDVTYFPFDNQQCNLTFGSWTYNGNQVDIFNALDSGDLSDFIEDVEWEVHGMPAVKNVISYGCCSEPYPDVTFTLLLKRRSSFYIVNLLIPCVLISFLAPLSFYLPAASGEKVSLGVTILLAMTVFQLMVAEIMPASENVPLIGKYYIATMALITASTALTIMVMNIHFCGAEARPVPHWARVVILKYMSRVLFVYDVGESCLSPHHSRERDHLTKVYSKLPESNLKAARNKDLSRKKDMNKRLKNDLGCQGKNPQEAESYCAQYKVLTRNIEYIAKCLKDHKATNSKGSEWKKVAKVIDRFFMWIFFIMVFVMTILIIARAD
human α9α10 nAChR, sequence (Q9GZZ6 25-450 limits assumed): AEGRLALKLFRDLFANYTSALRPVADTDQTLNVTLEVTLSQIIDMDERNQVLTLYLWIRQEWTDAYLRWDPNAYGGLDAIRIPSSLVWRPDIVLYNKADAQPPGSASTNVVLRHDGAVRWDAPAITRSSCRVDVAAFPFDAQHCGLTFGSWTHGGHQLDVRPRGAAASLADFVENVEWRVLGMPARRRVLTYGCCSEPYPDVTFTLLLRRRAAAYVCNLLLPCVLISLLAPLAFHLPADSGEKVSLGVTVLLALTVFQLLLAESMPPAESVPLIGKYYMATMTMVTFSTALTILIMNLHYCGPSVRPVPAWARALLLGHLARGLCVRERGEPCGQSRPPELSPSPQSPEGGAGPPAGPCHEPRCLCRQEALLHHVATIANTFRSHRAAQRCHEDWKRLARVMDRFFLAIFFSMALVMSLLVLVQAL
rat α9α10 nAChR, sequence (P43144 26-479 limits assumed): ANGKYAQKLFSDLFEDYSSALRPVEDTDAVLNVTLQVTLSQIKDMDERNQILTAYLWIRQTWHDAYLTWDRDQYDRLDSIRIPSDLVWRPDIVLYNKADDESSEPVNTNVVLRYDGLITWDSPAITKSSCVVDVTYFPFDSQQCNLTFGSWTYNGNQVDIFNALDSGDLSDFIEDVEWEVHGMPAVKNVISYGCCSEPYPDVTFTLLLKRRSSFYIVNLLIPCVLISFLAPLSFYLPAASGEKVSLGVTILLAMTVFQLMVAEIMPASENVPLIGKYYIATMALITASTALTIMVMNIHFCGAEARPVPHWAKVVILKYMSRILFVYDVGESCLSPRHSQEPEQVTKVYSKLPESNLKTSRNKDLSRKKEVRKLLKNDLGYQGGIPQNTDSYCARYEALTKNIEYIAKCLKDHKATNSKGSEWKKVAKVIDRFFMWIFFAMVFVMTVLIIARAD
rat α9α10 nAChR, sequence (Q9JLB5 25-447 limits assumed): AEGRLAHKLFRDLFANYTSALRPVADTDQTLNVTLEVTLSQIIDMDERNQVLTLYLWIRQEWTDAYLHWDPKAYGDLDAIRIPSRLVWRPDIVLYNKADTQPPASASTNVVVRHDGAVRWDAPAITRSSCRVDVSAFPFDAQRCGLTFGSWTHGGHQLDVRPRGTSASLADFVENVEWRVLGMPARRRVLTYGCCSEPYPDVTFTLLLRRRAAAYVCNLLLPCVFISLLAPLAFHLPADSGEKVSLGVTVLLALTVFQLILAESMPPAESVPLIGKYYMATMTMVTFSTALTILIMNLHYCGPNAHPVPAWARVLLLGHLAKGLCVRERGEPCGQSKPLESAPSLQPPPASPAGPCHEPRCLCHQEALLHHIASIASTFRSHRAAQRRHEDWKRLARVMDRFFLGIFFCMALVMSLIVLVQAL
α7 nAChR, sequence (P36544 23-502 limits assumed): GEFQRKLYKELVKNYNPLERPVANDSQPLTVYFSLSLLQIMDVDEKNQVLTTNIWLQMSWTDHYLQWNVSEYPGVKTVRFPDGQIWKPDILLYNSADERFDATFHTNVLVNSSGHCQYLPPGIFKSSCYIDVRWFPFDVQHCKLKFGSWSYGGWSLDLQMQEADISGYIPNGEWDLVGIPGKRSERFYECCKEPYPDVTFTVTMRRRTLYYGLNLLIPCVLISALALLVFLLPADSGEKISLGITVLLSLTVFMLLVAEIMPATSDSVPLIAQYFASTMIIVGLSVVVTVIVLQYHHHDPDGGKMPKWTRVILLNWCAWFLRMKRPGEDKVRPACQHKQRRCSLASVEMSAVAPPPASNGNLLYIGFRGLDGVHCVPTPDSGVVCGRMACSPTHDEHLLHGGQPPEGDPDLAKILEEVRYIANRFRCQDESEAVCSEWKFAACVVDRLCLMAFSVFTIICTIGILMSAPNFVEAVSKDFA

Question: With `N=C(N)NCCC[C@H](NC(=O)[C@@H]1CSSC[C@@H]2NC(=O)[C@@H](NC(=O)CN)CSSC[C@H](NC(=O)[C@H](CCCNC(=N)N)NC(=O)[C@@H]3CCCN3C(=O)[C@H](CC(=O)O)NC(=O)[C@H](CO)NC2=O)C(=O)N[C@@H](CCCNC(=N)N)C(=O)N[C@@H](Cc2ccc(O)cc2)C(=O)N[C@@H](CCCNC(=N)N)C(=O)N1)C(=O)O` [RgIA] as the molecule, how does the “Lower affinity for the human than the rat α9α10 nAChR” value [1] read?
Answer: Its value is “approximately 300 fold”.

Question: What does the source list for `C[C@@H](O)[C@@H]1NC(=O)[C@@H]2Cc3cn(nn3)CCC[C@@H](C(=O)N[C@@H](Cc3ccc(O)cc3)C(N)=O)NC(=O)[C@H](CCC(N)=O)NC(=O)[C@H](Cc3c[nH]c4ccccc34)NC(=O)[C@H](CCCNC(N)=O)NC(=O)[C@H](CSSC[C@H](NC(=O)CN)C(=O)N2)NC(=O)[C@H](CCCNC(=N)N)NC(=O)[C@@H]2CCCN2C(=O)[C@H](CC(=O)O)NC1=O` [Ia′, L-tyrosinamide, glycyl-L-cysteinyl-L-alanyl-L-threonyl-L-α-aspartyl-L-prolyl-L-arginyl-L-cysteinyl-N5-(aminocarbonyl)-L-ornithyl-L-tryptophyl-L-glutaminyl-L-norvalyl-cyclic (2→8)-disulfide-cyclic 3^3,12^5-(1H-1,2,3-triazole-4,1-diyl)] (H-GC[Pra]TDPRC[Cit]WQ[Orn(N3)]Y-NH2; disulfide 2-8; triazole 3-12)?
Answer: Duration of significant reduction in mechanical hyperalgesia compared to vehicle ([2]; rat, 0.5 mg/kg): up to 24 h; Mechanical hyperalgesia versus vehicle (in words) ([2]; rat, sc, 0.5 mg/kg): statistically significant improvements in mechanical hyperalgesia; Off-target effects in panel of 88 receptors, transporters, enzymes and kinases [3]: no off-target effects; Duration of significant reduction in mechanical hyperalgesia compared to vehicle [4]: up to 24 h; Mechanical hyperalgesia versus vehicle (in words) ([4]; sc): statistically significant improvement in mechanical hyperalgesia; IC50 [5]: 12.6 nM and 7.7 nM; inhibition at 10 µM [6]: 52%; IC50 [7]: 26 ± 4 nM

Question: For `C[C@@H](O)[C@@H]1NC(=O)[C@@H]2Cc3cn(nn3)CCC[C@@H](C(=O)N[C@@H](Cc3ccc(O)cc3)C(=O)O)NC(=O)[C@H](CCC(N)=O)NC(=O)[C@H](Cc3c[nH]c4ccccc34)NC(=O)[C@H](CCCNC(N)=O)NC(=O)[C@H](CSSC[C@H](NC(=O)CN)C(=O)N2)NC(=O)[C@H](CCCNC(=N)N)NC(=O)[C@@H]2CCCN2C(=O)[C@H](CC(=O)O)NC1=O` [Ia, L-tyrosine, glycyl-L-cysteinyl-L-alanyl-L-threonyl-L-α-aspartyl-L-prolyl-L-arginyl-L-cysteinyl-N5-(aminocarbonyl)-L-ornithyl-L-tryptophyl-L-glutaminyl-L-norvalyl-cyclic (2→8) disulfide-cyclic 3^3,12^5-(1H-1,2,3-triazole-4,1-diyl)] (H-GC[Pra]TDPRC[Cit]WQ[Orn(N3)]Y-OH; disulfide 2-8; triazole 3-12), which “PD (Rat CIPN) Duration of PD effect” value [2] is on record?
Answer: Its value is 4 to 24 h.

Question: What about the “PD (Rat CIPN) Required dose to reach max efficacy” value [2] of the same molecule?
Answer: The value was 0.5 mg/kg.

Question: And the “Duration of significant reduction in mechanical hyperalgesia compared to vehicle” value ([2]; rat, 0.5 mg/kg)?
Answer: The value was “up to 4 h”.

Question: What about the “Disulfide rearrangement / stability in plasma and serum (in words)” value [8] of the same molecule?
Answer: Its value is “single isolated peak on reverse phase HPLC in rat plasma at 0 h, 8 h and 24 h”.

Question: What about the AUC [9] of the same molecule?
Answer: Its AUC is 981 ng·h/mL.

Question: And the AUC(0-t) [9]?
Answer: The AUC(0-t) was 981 ng·h/mL.

Question: What about the Cmax [9] of the same molecule?
Answer: Its Cmax is 648 ng/mL.

Question: What about the Tmax [9] of the same molecule?
Answer: The Tmax was 15 min.

Question: What about the half-life [9] of the same molecule?
Answer: The half-life was 30 min.

Question: What about the IC50 [5] of the same molecule?
Answer: The IC50 was 14.3 ± 1.8 nM.

Question: And the IC50 [7]?
Answer: Its IC50 is 0.7 ± 0.03 nM.

Question: For `C[C@@H](O)[C@@H]1NC(=O)[C@@H]2CSSC[C@@H](C(=O)N[C@@H](Cc3ccc(O)cc3)C(N)=O)NC(=O)[C@H](CCC(N)=O)NC(=O)[C@H](Cc3ccc(O)c(I)c3)NC(=O)[C@H](CCCNC(N)=O)NC(=O)[C@H](CSSC[C@H](NC(=O)CN)C(=O)N2)NC(=O)[C@H](CCCNC(=N)N)NC(=O)[C@@H]2CCCN2C(=O)[C@H](CC(=O)O)NC1=O` [CSP-4-NH2, reference compound], which “Recovered peptide from blood remaining in the native form” value [10] is on record?
Answer: The value was 40-50%.

Question: And the “Activity on the rat α9α10 nAChR (in words)” value [5]?
Answer: Its value is “active”.

Question: What about the IC50 [5] of the same molecule?
Answer: The IC50 was 0.4 ± 0.2 nM.

Question: What about the “Activity on the human α9α10 nAChR (in words)” value [7] of the same molecule?
Answer: The value was “active”.

Question: What about the “Block of ACh-evoked currents” value [7] of the same molecule?
Answer: Its value is > 99%.

Question: What about the IC50 [7] of the same molecule?
Answer: The IC50 was 3.5 ± 1.5 nM.

Question: What about the “Percent of 100 μM acetylcholine-induced current remaining in the presence of compound, Mean ± SEM” value [7] of the same molecule?
Answer: The value was 0.4 ± 0.11%.
